Results on 15 compounds are retold here after patent publication US10064873B2, “Compounds and compositions for treating HIV with derivatives of Betulin” (GlaxoSmithKline LLC, priority 2011, dated 2018).

The test system of this assay is HIV NL4-3 wt. Briefly: MT4 antiviral assay, NL4-3 strain wild type. Type of assay: cell-based, HIV-1.
[1] abbreviates: Human immunodeficiency virus 1, NL43, MT4 cells, read-out: EC50 NL4-3 wt.
The mark [2] stands for this setting: Human immunodeficiency virus 1, NL43, MT4, read-out: EC50 NL4-3 wt (nM).

Structures are written as SMILES. Read-outs that look alike come from different tables or passages of the source.

On to `CC(=O)O[C@H](CN(CCN(C)C)Cc1ccc(F)cc1)[C@@]12CC[C@]3(C)[C@H](CC[C@@H]4[C@@]5(C)CC[C@H](OC(=O)CC(C)(C)C(=O)O)C(C)(C)[C@@H]5CC[C@]43C)C1=C(C(C)C)C(=O)C2` [Example 70, 4-(((3aR,5aR,5bR,7aR,9S,11aR,11bR,13aS)-3a-((S)-1-acetoxy-2-((2-(dimethylamino)ethyl)(4-fluorobenzyl)amino)ethyl)-1-isopropyl-5a,5b,8,8,11a-pentamethyl-2-oxo-3,3a,4,5,5a,5b,6,7,7a,8,9,10,11,11a,11b,12,13,13a-octadecahydro-2H-cyclopenta[a]chrysen-9-yl)oxy)-2,2-dimethyl-4-oxobutanoic acid], for which the concentration for a half-maximal effect (EC50) under setting [1] was determined as 1.6 nM.

`CC(=O)N(Cc1ccc(Cl)cc1)C[C@H](O)[C@@]12CC[C@]3(C)[C@H](CC[C@@H]4[C@@]5(C)CC[C@H](OC(=O)CC(C)(C)C(=O)O)C(C)(C)[C@@H]5CC[C@]43C)C1=C(C(C)C)C(=O)C2` [Example 34, 4-(((3aR,5aR,5bR,7aR,9S,11aR,11bR,13aS)-3a-((R)-2-(N-(4-Chlorobenzyl)acetamido)-1-hydroxyethyl)-1-isopropyl-5a,5b,8,8,11a-pentamethyl-2-oxo-3,3a,4,5,5a,5b,6,7,7a,8,9,10,11,11a,11b,12,13,13a-octadecahydro-2H-cyclopenta[a]chrysen-9-yl)oxy)-2,2-dimethyl-4-oxobutanoic acid]: the EC50 under setting [1] was found to be 7.1 nM.

Consider `CC(C)C1=C2[C@H]3CC[C@@H]4[C@@]5(C)CC[C@H](OC(=O)CC(C)(C)C(=O)O)C(C)(C)[C@@H]5CC[C@@]4(C)[C@]3(C)CC[C@@]2([C@@H](O)CNCc2ccccc2Cl)CC1=O` [Example 25, 4-(((3aR,5aR,5bR,7aR,9S,11aR,11bR,13aS)-3a-((R)-2-((2-chlorobenzyl)amino)-1-hydroxyethyl)-1-isopropyl-5a,5b,8,8,11a-pentamethyl-2-oxo-3,3a,4,5,5a,5b,6,7,7a,8,9,10,11,11a,11b,12,13,13a-octadecahydro-2H-cyclopenta[a]chrysen-9-yl)oxy)-2,2-dimethyl-4-oxobutanoic acid], for which, under setting [1], the concentration giving a half-maximal response (EC50) is 14.7 nM.

Consider `CC(C)C1=C2[C@H]3CC[C@@H]4[C@@]5(C)CC[C@H](OC(=O)CC(C)(C)C(=O)O)C(C)(C)[C@@H]5CC[C@@]4(C)[C@]3(C)CC[C@@]2([C@H](O)CN(CCN(C)C)Cc2ccccc2Cl)CC1=O` [Compound 51], for which, under setting [1], the EC50 was found to be 3.5 nM.

With `CC(C)C1=C2[C@H]3CC[C@@H]4[C@@]5(C)CC[C@H](OC(=O)CC(C)(C)C(=O)O)C(C)(C)[C@@H]5CC[C@@]4(C)[C@]3(C)CC[C@@]2(CCN(CCN(C)C)C2(c3ccc(Cl)cc3)CC2)CC1=O` [Example 11, 4-(((3aR,5aR,5bR,7aR,9S,11aR,11bR,13aS)-3a-(2-((1-(4-Chlorophenyl)cyclopropyl)(2-(dimethylamino)ethyl)amino)ethyl)-1-isopropyl-5a,5b,8,8,11a-pentamethyl-2-oxo-3,3a,4,5,5a,5b,6,7,7a,8,9,10,11,11a,11b,12,13,13a-octadecahydro-2H-cyclopenta[a]chrysen-9-yl)oxy)-2,2-dimethyl-4-oxobutanoic acid], under setting [1], the half-maximal effective concentration (EC50) was 6.3 nM.

As to `CC(C)C1=C2[C@H]3CC[C@@H]4[C@@]5(C)CC[C@H](OC(=O)CC(C)(C)C(=O)O)C(C)(C)[C@@H]5CC[C@@]4(C)[C@]3(C)CC[C@@]2([C@@H](CN(CCN(C)C)Cc2ccc(Cl)cc2)OC(=O)CC(C)(C)C(=O)O)CC1=O` [Example 4, 4-((S)-1-((3aR,5aR,5bR,7aR,9S,11aR,11bR,13aS)-9-((3-Carboxy-3-methylbutanoyl)oxy)-1-isopropyl-5a,5b,8,8,11a-pentamethyl-2-oxo-3,3a,4,5,5a,5b,6,7,7a,8,9,10,11,11a,11b,12,13,13a-octadecahydro-2H-cyclopenta[a]chrysen-3a-yl)-2-((4-chlorobenzyl)(2-(dimethylamino)ethyl)amino)ethoxy)-2,2-dimethyl-4-oxobutanoic acid], the concentration giving a half-maximal response (EC50) under setting [2] was determined as 10.1 nM.

Turning to `CC(C)C1=C2[C@H]3CC[C@@H]4[C@@]5(C)CC[C@H](OC(=O)CC(C)(C)C(=O)O)C(C)(C)[C@@H]5CC[C@@]4(C)[C@]3(C)CC[C@@]2(CCN(C)Cc2ccc(Cl)cc2)CC1=O` [Example 12, 4-(((3aR,5aR,5bR,7aR,9S,11aR,11bR,13aS)-3a-(2-((4-Chlorobenzyl)(methyl)amino)ethyl)-1-isopropyl-5a,5b,8,8,11a-pentamethyl-2-oxo-3,3a,4,5,5a,5b,6,7,7a,8,9,10,11,11a,11b,12,13,13a-octadecahydro-2H-cyclopenta[a]chrysen-9-yl)oxy)-2,2-dimethyl-4-oxobutanoic acid], under setting [2], the EC50 worked out at 4.5 nM.

For the compound `CC(C)C1=C2[C@H]3CC[C@@H]4[C@@]5(C)CC[C@H](OC(=O)CC(C)(C)C(=O)O)C(C)(C)[C@@H]5CC[C@@]4(C)[C@]3(C)CC[C@@]2([C@H](O)CNCC2CCCCC2)CC1` [Example 67, 4-(((3aS,5aR,5bR,7aR,9S,11aR,11bR,13aS)-3a-((S)-2-((cyclohexylmethyl)amino)-1-hydroxyethyl)-1-isopropyl-5a,5b,8,8,11a-pentamethyl-3,3a,4,5,5a,5b,6,7,7a,8,9,10,11,11a,11b,12,13,13a-octadecahydro-2H-cyclopenta[a]chrysen-9-yl)oxy)-2,2-dimethyl-4-oxobutanoic acid], under setting [1], the EC50 is 136 nM.

Regarding `CC(C)C1=C2[C@H]3CC[C@@H]4[C@@]5(C)CC[C@H](OC(=O)CC(C)(C)C(=O)O)C(C)(C)[C@@H]5CC[C@@]4(C)[C@]3(C)CC[C@@]2(CCNCc2ccc(Cl)cc2)CC1` [Example 66, 4-(((3aR,5aR,5bR,7aR,9S,11aR,11bR,13aS)-3a-(2-((4-chlorobenzyl)amino)ethyl)-1-isopropyl-5a,5b,8,8,11a-pentamethyl-3,3a,4,5,5a,5b,6,7,7a,8,9,10,11,11a,11b,12,13,13a-octadecahydro-2H-cyclopenta[a]chrysen-9-yl)oxy)-2,2-dimethyl-4-oxobutanoic acid], the 50% effective concentration (EC50) under setting [1] was found to be 9.2 nM.

Consider `CC(C)C1=C2[C@H]3CC[C@@H]4[C@@]5(C)CC[C@H](OC(=O)CC(C)(C)C(=O)O)C(C)(C)[C@@H]5CC[C@@]4(C)[C@]3(C)CC[C@@]2(CCNC2(c3ccc(Cl)cc3)CC2)CC1=O` [Example 9, 4-(((3aR,5aR,5bR,7aR,9S,11aR,11bR,13aS)-3a-(2-((1-(4-chlorophenyl)cyclopropyl)amino)ethyl)-1-isopropyl-5a,5b,8,8,11a-pentamethyl-2-oxo-3,3a,4,5,5a,5b,6,7,7a,8,9,10,11,11a,11b,12,13,13a-octadecahydro-2H-cyclopenta[a]chrysen-9-yl)oxy)-2,2-dimethyl-4-oxobutanoic acid], for which the EC50 under setting [1] amounted to 12.3 nM.

As for `CC(C)C1=C2[C@H]3CC[C@@H]4[C@@]5(C)CC[C@H](OC(=O)CC(C)(C)C(=O)O)C(C)(C)[C@@H]5CC[C@@]4(C)[C@]3(C)CC[C@@]2([C@H](CN(CCN(C)C)Cc2ccc(Cl)cc2)OC(=O)CC(C)(C)C(=O)O)CC1=O` [Example 2, 4-((R)-1-((3aR,5aR,5bR,7aR,9S,11aR,11bR,13aS)-9-((3-Carboxy-3-methylbutanoyl)oxy)-1-isopropyl-5a,5b,8,8,11a-pentamethyl-2-oxo-3,3a,4,5,5a,5b,6,7,7a,8,9,10,11,11a,11b,12,13,13a-octadecahydro-2H-cyclopenta[a]chrysen-3a-yl)-2-((4-chlorobenzyl)(2-(dimethylamino)ethyl)amino)ethoxy)-2,2-dimethyl-4-oxobutanoic acid], the EC50 under setting [2] turned out to be 5.2 nM.

As to `CC(C)C1=C2[C@H]3CC[C@@H]4[C@@]5(C)CC[C@H](OC(=O)CC(C)(C)C(=O)O)C(C)(C)[C@@H]5CC[C@@]4(C)[C@]3(C)CC[C@@]2([C@@H](O)CN(C)Cc2ccc(Cl)cc2)CC1=O` [Example 31, 4-(((3aR,5aR,5bR,7aR,9S,11aR,11bR,13aS)-3a-((R)-2-((4-Chlorobenzyl)(methyl)amino)-1-hydroxyethyl)-1-isopropyl-5a,5b,8,8,11a-pentamethyl-2-oxo-3,3a,4,5,5a,5b,6,7,7a,8,9,10,11,11a,11b,12,13,13a-octadecahydro-2H-cyclopenta[a]chrysen-9-yl)oxy)-2,2-dimethyl-4-oxobutanoic acid], the EC50 under setting [1] stood at 5.4 nM.

As to `CC(C)C1=C2[C@H]3CC[C@@H]4[C@@]5(C)CC[C@H](OC(=O)CC(C)(C)C(=O)O)C(C)(C)[C@@H]5CC[C@@]4(C)[C@]3(C)CC[C@@]2([C@H](CNCc2ccc(Cl)cc2)OC(=O)CC(C)(C)C(=O)O)CC1=O` [Example 1, 4-((R)-1-((3aR,5aR,5bR,7aR,9S,11aR,11bR,13aS)-9-((3-carboxy-3-methylbutanoyl)oxy)-1-isopropyl-5a,5b,8,8,11a-pentamethyl-2-oxo-3,3a,4,5,5a,5b,6,7,7a,8,9,10,11,11a,11b,12,13,13a-octadecahydro-2H-cyclopenta[a]chrysen-3a-yl)-2-((4-chlorobenzyl)amino)ethoxy)-2,2-dimethyl-4-oxobutanoic acid], the concentration giving a half-maximal response (EC50) under setting [1] amounted to 41.1 nM.

`CC(C)C1=C2[C@H]3CC[C@@H]4[C@@]5(C)CC[C@H](OC(=O)CC(C)(C)C(=O)O)C(C)(C)[C@@H]5CC[C@@]4(C)[C@]3(C)CC[C@@]2(CCNCc2cccc(Cl)c2)CC1=O` [Example 7, 4-(((3aR,5aR,5bR,7aR,9S,11aR,11bR,13aS)-3a-(2-((3-Chlorobenzyl)amino)ethyl)-1-isopropyl-5a,5b,8,8,11a-pentamethyl-2-oxo-3,3a,4,5,5a,5b,6,7,7a,8,9,10,11,11a,11b,12,13,13a-octadecahydro-2H-cyclopenta[a]chrysen-9-yl)oxy)-2,2-dimethyl-4-oxobutanoic acid]: under setting [2], the EC50 stood at 6.1 nM.

For the compound `CC(C)C1=C2[C@H]3CC[C@@H]4[C@@]5(C)CC[C@H](OC(=O)CC(C)(C)CC(=O)O)C(C)(C)[C@@H]5CC[C@@]4(C)[C@]3(C)CC[C@@]2([C@H](O)CNCc2ccc(Cl)cc2)CC1=O` [Example 73, 5-(((3aR,5aR,5bR,7aR,9S,11aR,11bR,13aS)-3a-((S)-2-((4-chlorobenzyl)amino)-1-hydroxyethyl)-1-isopropyl-5a,5b,8,8,11a-pentamethyl-2-oxo-3,3a,4,5,5a,5b,6,7,7a,8,9,10,11,11a,11b,12,13,13a-octadecahydro-2H-cyclopenta[a]chrysen-9-yl)oxy)-3,3-dimethyl-5-oxopentanoic acid], the EC50 under setting [1] turned out to be 31.8 nM.
